Source: US6867235B2, “Helianthrone derivatives as anti-cancer agents” (Yeda Research and Development Co. Ltd., priority 2000, dated 2005)

Key:
[1] = system: rat aorta rings, endothelial cell microvessels; test: Rat aorta ring microvessel formation in fibrin gel; assay type: cell-based; details: 0.1-10 μg/ml (0.2-20 μM)
From the text: Rat aorta is carved into rings which are embedded in fibrin gels and cultured in MCDB 131 medium. Endothelial cells that detach from the aorta rings generate branching microvessels according to a method previously described (Nicosia R. F. and Ottinetti A. Growth of microvessels in serum-free matrix culture of rat aorta. Laboratory Investigation 63: 115, 1990).

tumor neovascularization = test: Tumor neovascularization in tumor-bearing mice; details: mouse, in vivo
From the text: These hitherto unknown attributes were detected while studying the effects of hypericin and of helianthrone derivatives on breast adenocarcinoma tumors induced in mice with the DA-3^HI cell line and on murine anaplastic squamous carcinoma tumors induced with the SQ-2 cell line. Both are highly metastatic tumors and if surgically resected after having reached a diameter larger than 5 mm, the mice will go on to develop metastases in the lungs and liver. The metastases cause death of the animals within approximately two months following surgery.
By preventing development of new blood vessels to supply a growing metastasis, the rapidly growing metastatic focus is deprived of nutrients and oxygen for its rapidly multiplying cells and the lesion degenerates.

Cc1ccc2c(=O)c3c(O)cc(O)c4c5c(O)cc(O)c6c(=O)c7ccc(C)cc7c(c65)c(c2c1)c34 [dimethyl tetrahydroxyhelianthrone, 10,13-dimethyl-1,3,4,6-tetrahydroxyhelianthrone]
formation of organized microvessels [1]: inhibition of formation of the organized microvessels
neovascularization of tumors (tumor neovascularization): prevented neovascularization
